According to article PMC9506420, “Biological Evaluation of 3-Azaspiro[Bicyclo[3.1.0]Hexane-2,5′-Pyrimidines] as Potential Antitumor Agents” (International Journal of Molecular Sciences, 2022):
“And” between values parts separate entries of the source, which are not always exact repeats. Equal entries are not always repeated. Where two headings read alike, the source gives them in different places.

Tests used:
[1] = test system: African green monkey kidney epithelial (Vero) cell line; experiment: MTS antiproliferative (cytotoxicity) assay, Vero (reference); assay type: cell-based; details: Chlorocebus sabaeus, Vero
Protocol: (§1) The cytotoxicity of synthesized 3-azaspiro[bicyclo[3.1.0]hexane-2,5′-pyrimidines] 4 against human erythroleukemia (K562), cervical carcinoma (HeLa), and T lymphocyte (Jurkat), as well as mouse colon carcinoma (CT26) and African green monkey kidney epithelial (Vero) cell lines as reference, was evaluated in vitro by the standard MTS assay for 24 and 72 h.
(§2) All the cell lines (human cervical carcinoma (HeLa), erythroleukemia (K-562), and T lymphocyte (Jurkat) as well as mouse colon carcinoma (CT26) and African green monkey kidney epithelial (Vero)) were obtained from the cell repository “Vertebrate cell culture collection” (supported by the Ministry of Science and Higher Education of the Russian Federation, agreement №075-15-2021-683, Institute of Cytology, Russian Academy of Sciences, Saint Petersburg, Russia). HeLa, Jurkat, and Vero cells were cultured in DMEM (HyClone, South Logan, UT, USA) supplemented with 10% (v/v) fetal bovine serum (Hyclone, GE Healthcare Life Sciences, Logan, UT, USA), and gentamicin (Sigma-Aldrich, St. Louis, MO, USA) at 37 °C in a humidified atmosphere with 5% CO2. K-562 and CT26 cells were grown at RPMI medium (Hyclone, GE Healthcare Life Sciences, Logan, UT, USA), with the same supplements and conditions.
(§3) To evaluate the in vitro toxicity of compounds synthesized, cells were seeded into 96-well plates at a density of 5 × 10^3 cells per well. On the next day, tested compounds were added to the wells at concentrations ranging from […], followed by incubation for 1 and 3 days. Cell proliferation was determined by adding 20 μL of MTS reagent (BioVision, Milpitas, CA, USA) stock solution per well. Each plate was incubated for 2 h at 37 °C in a humidified, 5% CO2 atmosphere. The plates were then read at 495 nm using plate spectrophotometer (Multiskan GO, Thermo Fisher Scientific, Waltham, MA, USA). All samples were measured in triplicates.

[2] = test system: HeLa cells; experiment: Annexin V-FITC/DAPI cell death analysis, HeLa; assay type: cell-based, human; details: 10 μg/mL, 72 h; for Necrotic Cells, %: control 0.5 ± 0.3; for Early Apoptotic Cells, %: control 4.5 ± 0.7; for Late Apoptotic Cells, %: control 5.9 ± 0.4; for Live Cells, %: control 89.0 ± 0.7
Protocol: (§4) The results of cell death detection after the exposure of the HeLa and CT26 cell lines to spiro-fused cycloadducts 4c–i at a dose of 10 μg/mL for 72 h, using Annexin V-FITC/DAPI staining, are shown in Figure 6 and Figure 7, respectively.
(§5) Cells were seeded in 24-well plates, 5 × 10^4 cells per well. After 24 h incubation, cells were treated with compounds 4c–i for 72 h. Then, cells were washed, harvested by trypsinisation, stained with Annexin V-FITC ([…]) and DAPI (Thermo Fisher Scientific, Waltham, MA, USA), in accordance with the protocol of the manufacturer, and analyzed by flow cytometry. The proapoptotic effect of azaspiro[bicyclo[3.1.0]hexane-2,5′-pyrimidines] 4c–i was evaluated by an Annexin V-FITC/DAPI (AV/DAPI) dual-staining assay to examine the occurrence of phosphatidylserine externalization, which facilitated the detection of live cells (lower-left quadrant; AV−/DAPI−), early apoptotic cells (upper-left quadrant; AV+/DAPI−), late apoptotic cells (upper-right quadrant; AV+/DAPI+), and necrotic cells (lower-right quadrant; AV−/DAPI+).

[3] = test system: HeLa cells; experiment: Cell cycle distribution by flow cytometry (propidium iodide), HeLa; assay type: cell-based, human; details: for SubG1 (%) / G2/M (%) / S (%) / G0/G1 (%): HeLa, 10 μg/mL, 24 h; for SubG1 (%): control 2.3 ± 0.4; for G2/M (%): control 12.2 ± 1.3; for S (%): control 12.5 ± 1.7; for G0/G1 (%): control 73.1 ± 2.6
Protocol: (§6) One of the indicators of the influence of biologically active products on the cells is the changed distribution of cells during different stages of the cell cycle. In this work, recently synthesized compounds were tested using flow cytometry for their effect on the distribution of cells in the cell cycle (G0/G1, G2/M, and S). Figure 8, Figure 9 and Figure 10 and Table 3 show the typical data after processing the results from three replicates of each experiment.
(§7) The distribution of HeLa and CT26 cells in the G0/G1-, S-, and G2/M-phases of the cell cycle was obtained by quantification of DNA content in propidium-iodide-stained cells using flow cytometry. Briefly, cells were seeded in 24-well plates at a density of 5 × 10^4 cells per well. After 24 h incubation, cells were exposed to 10 μg/mL of compounds 4c–i (the structure is provided in Scheme 1) for 24 h. The effects of compounds 4d, 4e, 4g, 4h were additionally tested at concentrations of 2 and 5 μg/mL. After incubation with drugs, the cells were detached by exposure to trypsin-EDTA for 5 min at 37 °C and then collected by pipetting. This was followed by treatment with 0.2 mg/mL saponin (Fluka, Waltham, MA, USA), 0.25 mg/mL RNase (Sigma-Aldrich, St. Louis, MO, USA), and 0.05 mg/mL propidium iodide (Invitrogen, Carlsbad, CA, USA). After washing, the samples were analyzed by standard flow cytometer (BD FACSCanto II, Becton Dickinson, San Jose, CA, USA). Then, 10,000 events were acquired for the sample. Data processing was performed using BD FACSDiva 9.0 software.

[4] = test system: human cervical carcinoma (HeLa) cell line; experiment: MTS antiproliferative (cytotoxicity) assay, HeLa; assay type: cell-based; details: HeLa; for SI (selectivity index), HeLa: Vero as reference cell line; for IC50: Homo sapiens
Protocol: as §1, §2, §3

[5] = test system: CT26 cells; experiment: Annexin V-FITC/DAPI cell death analysis, CT26; assay type: cell-based, mouse; details: CT26, 10 μg/mL, 72 h; for Necrotic Cells, %: control 0.0 ± 0.0; for Late Apoptotic Cells, %: control 0.9 ± 0.4; for Early Apoptotic Cells, %: control 10.5 ± 0.7; for Live Cells, %: control 88.5 ± 1.1
Protocol: as §4, §5

[6] = test system: mouse colon carcinoma (CT26) cell line; experiment: MTS antiproliferative (cytotoxicity) assay, CT26; assay type: cell-based; details: for SI (selectivity index), CT26: Vero as reference cell line; for IC50: Mus musculus
Protocol: as §1, §2, §3

[7] = test system: CT26 cells; experiment: Cell cycle distribution by flow cytometry (propidium iodide), CT26; assay type: cell-based, mouse; details: for SubG1 (%) / G2/M (%) / S (%) / G0/G1 (%): CT26, 10 μg/mL, 24 h; for SubG1 (%): control 3.6 ± 0.6; for G2/M (%): control 12.3 ± 0.9; for S (%): control 40.1 ± 1.5; for G0/G1 (%): control 44.0 ± 1.7
Protocol: as §6, §7

[8] = 24 h, read-out: IC50, Vero, 24 h
[9] = 72 h, read-out: IC50, Vero, 72 h
[10] = 24 h, read-out: IC50, HeLa, 24 h
[11] = 72 h, read-out: IC50, HeLa, 72 h
[12] = CT26, 24 h, read-out: IC50, CT26, 24 h
[13] = CT26, 72 h, read-out: IC50, CT26, 72 h

Compound | IC50 [1, 8] | IC50 [1, 9] | Necrotic Cells, % [2] | Early Apoptotic Cells, % [2] | Late Apoptotic Cells, % [2] | Live Cells, % [2] | SubG1 (%) [3] | G2/M (%) [3] | S (%) [3] | G0/G1 (%) [3] | SI (selectivity index), HeLa [4] | IC50 [4, 10] | IC50 [4, 11] | Necrotic Cells, % [5] | Late Apoptotic Cells, % [5] | Early Apoptotic Cells, % [5] | Live Cells, % [5] | SI (selectivity index), CT26 [6] | IC50 [6, 12] | IC50 [6, 13] | other results
CCCCCC[C@@H]1NC2(C(=O)NC(=O)NC2=O)[C@]2(c3ccccc3)[C@@H](c3ccccc3)[C@]12c1ccccc1 [Compound 4g] | 33 ± 6 µM | 14 ± 2 µM | 6.3 ± 2.8 % | 38.5 ± 1.9 % | 38.0 ± 6.9 % | 17.1% and 17.1 ± 3.5 % | 39.5 ± 5.0 % | 5.3 ± 0.7 % | 13.3 ± 0.8% | 41.8 ± 3.0 % | 1.1 | 15 ± 2 µM | 13 ± 2 µM | 0.3 ± 0.1 % | 10.0 ± 0.3 % | 5.5 ± 0.1 % | 84.2 ± 0.3 % | 1.2 | 22 ± 2 µM | 12 ± 2 µM | cytostatic effect (cell cycle), HeLa ([3]; HeLa cell line): strongest cytostatic effect; SubG1 (%) [7]: 1.9 ± 0.5 %; G2/M (%) [7]: 19.4 ± 4.7 %; S (%) [7]: 17.0 ± 4.3 %; G0/G1 (%) [7]: 61.7 ± 9.4 %
CC(C)C[C@@H]1NC2(C(=O)NC(=O)NC2=O)[C@]2(c3ccccc3)[C@@H](c3ccccc3)[C@]12c1ccccc1 [Compound 4f] | 48 ± 6 µM | 10 ± 2 µM | 2.1 ± 1.3 % | 2.9 ± 0.1 % | 4.1 ± 0.5 % | 90.9 ± 1.6% | 10.5 ± 2.0 % | 12.8 ± 1.3% | 15.2 ± 1.2 % | 61.5 ± 3.3 % | 0.5 | 19 ± 2 µM | 23 ± 6 µM | 1.9 ± 0.5 % | 57.8 ± 3.1 % | 6.2 ± 1.2 % | 34.1 ± 3.8 % | 1.0 | 17 ± 2 µM | 10 ± 2 µM | rate of cell death in HeLa vs control [2]: not different from the control; SubG1 (%) [7]: 24.9 ± 5.2 %; G2/M (%) [7]: 13.5 ± 0.9 %; S (%) [7]: 31.9 ± 2.6 %; G0/G1 (%) [7]: 29.7 ± 1.4 %; cytostatic effect (cell cycle), CT26 ([7]; CT26 cell line): best effect
